Results as given in PubChem BioAssay AID1919004 (Molecular Pharmacology Branch, DTP, NCI, 2023).
“And” between values parts separate entries of the source, which are not always exact repeats. Equal entries are not always repeated.

Test system: 883617-216-R-J1-PDC complex spheroids, growth, % test/control
Assay: Anticancer human tumor 883617-216-R-J1-PDC patient-derived bladder carcinoma cell line growth inhibition [AhR]
Conditions: for viability, T/C: stronger effect = lower value; active = viability on the fitted dose curve at most 10% of control; inactive = the rest
Summary of the method: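 Spheroids combined tumor cells with HUVEC endothelial cells and human MSCs as stroma. AhR antagonists were paired with standard or investigational drugs, each dosed in half-log steps down from near clinical Cmax, or from 10 microM where Cmax was unknown.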

[1] = curve of first compound, second compound 0.1 µM
[2] = curve of first compound, second compound 0.316 µM
[3] = curve of first compound, second compound 1 µM
[4] = curve of first compound, second compound 3.16 µM
[5] = curve of first compound, second compound 10 µM
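Also: exposure lasted 7 days after dosing on day 3 of spheroid growth.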

CCc1c2c(nc3ccc(O)cc13)-c1cc3c(c(=O)n1C2)COC(=O)[C@]3(O)CC + Cc1ccccc1N=Nc1ccc(NC(=O)c2ccnn2C)c(C)c1
199 nM: IC50 [5]
109 nM: IC50 [4]
163 nM: IC50 [2]
121 nM: IC50 [3]
inactive: viability, T/C (second compound 0.1 µM, first compound 0.000949 µM) 92% | viability, T/C (second compound 0.1 µM, first compound 0.003 µM) 84% | viability, T/C (second compound 0.1 µM, first compound 0.00949 µM) 72.7% | viability, T/C (second compound 0.1 µM, first compound 0.03 µM) 70.2% | viability, T/C (second compound 0.1 µM, first compound 0.0949 µM) 60.3% | viability, T/C (second compound 0.1 µM, first compound 0.3 µM) 42.1% | viability, T/C (second compound 0.316 µM, first compound 0.000949 µM) 80.8% | viability, T/C (second compound 0.316 µM, first compound 0.003 µM) 82.2% | viability, T/C (second compound 0.316 µM, first compound 0.00949 µM) 77.6% | viability, T/C (second compound 0.316 µM, first compound 0.03 µM) 66.8% | viability, T/C (second compound 0.316 µM, first compound 0.0949 µM) 56.5% | viability, T/C (second compound 0.316 µM, first compound 0.3 µM) 43.6% | viability, T/C (second compound 1 µM, first compound 0.000949 µM) 80.9% | viability, T/C (second compound 1 µM, first compound 0.003 µM) 83.8% | viability, T/C (second compound 1 µM, first compound 0.00949 µM) 79.1% | viability, T/C (second compound 1 µM, first compound 0.03 µM) 61.6% | viability, T/C (second compound 1 µM, first compound 0.0949 µM) 54.4% | viability, T/C (second compound 1 µM, first compound 0.3 µM) 44% | viability, T/C (second compound 3.16 µM, first compound 0.000949 µM) 81.7% | viability, T/C (second compound 3.16 µM, first compound 0.003 µM) 84% | viability, T/C (second compound 3.16 µM, first compound 0.00949 µM) 70.7% | viability, T/C (second compound 3.16 µM, first compound 0.03 µM) 64.7% | viability, T/C (second compound 3.16 µM, first compound 0.0949 µM) 51.5% | viability, T/C (second compound 3.16 µM, first compound 0.3 µM) 39.4% | viability, T/C (second compound 10 µM, first compound 0.000949 µM) 78.8% | viability, T/C (second compound 10 µM, first compound 0.003 µM) 77.2% | viability, T/C (second compound 10 µM, first compound 0.00949 µM) 72.6% | viability, T/C (second compound 10 µM, first compound 0.03 µM) 74.8% | viability, T/C (second compound 10 µM, first compound 0.0949 µM) 56.8% | viability, T/C (second compound 10 µM, first compound 0.3 µM) 44.9%
185 nM: IC50 [1]

COc1cccc2c1C(=O)c1c(O)c3c(c(O)c1C2=O)CC(O)(C(=O)CO)CC3OC1CC(N)C(O)C(C)O1 (centres undefined) + Cc1cncc(-c2nc(NCCc3c[nH]c4ccccc34)c3ncn(C(C)C)c3n2)c1
393 nM: IC50 [1]
400 nM: IC50 [4]
404 nM: IC50 [3]
437 nM: IC50 [2]
active: viability, T/C (second compound 0.1 µM, first compound 3.16 µM) 0.11% | viability, T/C (second compound 0.1 µM, first compound 10 µM) 0.16% | viability, T/C (second compound 0.316 µM, first compound 3.16 µM) 0.05% | viability, T/C (second compound 0.316 µM, first compound 10 µM) 0.15% | viability, T/C (second compound 1 µM, first compound 1 µM) 5.5% | viability, T/C (second compound 1 µM, first compound 3.16 µM) 0.05% | viability, T/C (second compound 1 µM, first compound 10 µM) 1.21% | viability, T/C (second compound 3.16 µM, first compound 1 µM) 0.89% | viability, T/C (second compound 3.16 µM, first compound 3.16 µM) 0.17% | viability, T/C (second compound 3.16 µM, first compound 10 µM) 1.17% | viability, T/C (second compound 10 µM, first compound 1 µM) 0.82% | viability, T/C (second compound 10 µM, first compound 3.16 µM) 0.12% | viability, T/C (second compound 10 µM, first compound 10 µM) 0.16%
< 31.6 nM: IC50 [5]
inactive: viability, T/C (second compound 0.1 µM, first compound 0.0316 µM) 74.5% | viability, T/C (second compound 0.1 µM, first compound 0.1 µM) 66.3% | viability, T/C (second compound 0.1 µM, first compound 0.316 µM) 57.9% | viability, T/C (second compound 0.1 µM, first compound 1 µM) 18.8% | viability, T/C (second compound 0.316 µM, first compound 0.0316 µM) 65.3% | viability, T/C (second compound 0.316 µM, first compound 0.1 µM) 62.6% | viability, T/C (second compound 0.316 µM, first compound 0.316 µM) 64.4% | viability, T/C (second compound 0.316 µM, first compound 1 µM) 14% | viability, T/C (second compound 1 µM, first compound 0.0316 µM) 81.8% | viability, T/C (second compound 1 µM, first compound 0.1 µM) 74.5% | viability, T/C (second compound 1 µM, first compound 0.316 µM) 62.1% | viability, T/C (second compound 3.16 µM, first compound 0.0316 µM) 77.1% | viability, T/C (second compound 3.16 µM, first compound 0.1 µM) 75% | viability, T/C (second compound 3.16 µM, first compound 0.316 µM) 62.7% | viability, T/C (second compound 10 µM, first compound 0.0316 µM) 41.7% | viability, T/C (second compound 10 µM, first compound 0.1 µM) 37.4% | viability, T/C (second compound 10 µM, first compound 0.316 µM) 34.3%

CC[C@@]1(O)C(=O)OCc2c1cc1n(c2=O)Cc2cc3c(CN(C)C)c(O)ccc3nc2-1
inactive: viability, T/C (compound 0.000316 µM) 92.8% and 94.7% and 101% | viability, T/C (compound 0.001 µM) 108% and 116% and 99.4% | viability, T/C (compound 0.00316 µM) 90.1% and 89.1% and 94.2% | viability, T/C (compound 0.01 µM) 88.6% and 87.3% and 75.8% | viability, T/C (compound 0.0316 µM) 71% and 95.2% and 80.3% | viability, T/C (compound 0.1 µM) 67.6% and 80.6% and 70.9%
> 100 nM: IC50 (curve of compound)

COc1cccc2c1C(=O)c1c(O)c3c(c(O)c1C2=O)CC(O)(C(=O)CO)CC3OC1CC(N)C(O)C(C)O1 (centres undefined)
inactive: viability, T/C (compound 0.0316 µM) 70.3% and 65.3% and 99.7% | viability, T/C (compound 0.1 µM) 65.2% and 60.5% and 54.1% | viability, T/C (compound 0.316 µM) 60.8% and 58.8% and 62.2% | viability, T/C (compound 1 µM) 22.4% and 23% and 6.26%
active: viability, T/C (compound 3.16 µM) 0.22% and 0.36% and 3.97% | viability, T/C (compound 10 µM) 0.22% and 0.16% and 3.6%
436 nM and 420 nM and 211 nM: IC50 (curve of compound)
